Laboratory results published in patent publication US11034650B2, “Compounds useful for treating a Mannheimia haemolytica or Histophilus somni infection” (Intervet Inc., priority 2016, dated 2021).
In brackets after ≈: the same amount, converted by molar mass.

Assays:
Format in all cases: cell-based
[1] = system: Mannheimia haemolytica MH 6357 (M7/2, reference strain, cattle infection strain); experiment: MIC, broth-microdilution (CLSI VET01-A4), strain MH 6357; details: Mannheimia haemolytica strain MH 6357, broth-microdilution; unit assumed
Procedure, shortened: (§1)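 The compound was titrated in twofold steps in microdilution trays. Absence of turbidity, checked without instruments, marked the MIC at the lowest such concentration.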

[2] = system: Mannheimia haemolytica MH 13065 (XB0446-6003.9, BRD field isolate); experiment: MIC, broth-microdilution (CLSI VET01-A4), strain MH 13065; details: Mannheimia haemolytica strain MH 13065, broth-microdilution; unit assumed
Procedure, shortened: as §1

[3] = system: Pasteurella multocida PM 10775 (080130003051, BRD field isolate); experiment: MIC, broth-microdilution (CLSI VET01-A4), strain PM 10775; details: Pasteurella multocida strain PM 10775, broth-microdilution; unit assumed
Procedure, shortened: as §1

[4] = system: Mannheimia haemolytica MH 10720 (154, BRD field isolate); experiment: MIC, broth-microdilution (CLSI VET01-A4), strain MH 10720; details: Mannheimia haemolytica strain MH 10720, broth-microdilution; unit assumed
Procedure, shortened: as §1

[5] = system: Pasteurella multocida PM 6267 (P 2225 (L386), reference strain, mouse infection strain); experiment: MIC, broth-microdilution (CLSI VET01-A4), strain PM 6267; details: Pasteurella multocida strain PM 6267, broth-microdilution; unit assumed
Procedure, shortened: as §1

[6] = system: Mannheimia haemolytica MH 13093 (XB0472-6014.1, BRD field isolate); experiment: MIC, broth-microdilution (CLSI VET01-A4), strain MH 13093; details: Mannheimia haemolytica strain MH 13093, broth-microdilution; unit assumed
Procedure, shortened: as §1

[7] = system: Pasteurella multocida PM 6391 (ATCC 43137, reference strain); experiment: MIC, broth-microdilution (CLSI VET01-A4), strain PM 6391; details: Pasteurella multocida strain PM 6391, broth-microdilution; unit assumed
Procedure, shortened: as §1

[8] = system: Mannheimia haemolytica MH 6374 (ATCC 33396, reference strain); experiment: MIC, broth-microdilution (CLSI VET01-A4), strain MH 6374; details: Mannheimia haemolytica strain MH 6374, broth-microdilution; unit assumed
Procedure, shortened: as §1

[9] = system: Pasteurella multocida PM 12080 (IV102277-0093, BRD field isolate); experiment: MIC, broth-microdilution (CLSI VET01-A4), strain PM 12080; details: Pasteurella multocida strain PM 12080, broth-microdilution; unit assumed
Procedure, shortened: as §1

[10] = system: Mannheimia haemolytica MH 12587 (1071, BRD field isolate, macrolide-resistance: erm+, E+); experiment: MIC, broth-microdilution (CLSI VET01-A4), strain MH 12587; details: Mannheimia haemolytica strain MH 12587, broth-microdilution; unit assumed
Procedure, shortened: as §1

| SMILES | MIC PM 10775 [3] | MIC PM 6267 [5] | MIC PM 6391 [7] | MIC PM 12080 [9] | MIC MH 6357 [1] | MIC MH 13065 [2] | MIC MH 10720 [4] | MIC MH 13093 [6] | MIC MH 6374 [8] | MIC MH 12587 [10] |
| --- | --- | --- | --- | --- | --- | --- | --- | --- | --- | --- |
| CC(C)([C@H](NC(=O)c1ccc(C#Cc2ccc(CNCc3ccncc3)cc2)cc1)C(=O)NO)S(C)(=O)=O [C.261] | ≤ 0.1 µg/mL | ≤ 0.1 µg/mL | ≤ 0.1 µg/mL | ≤ 0.1 µg/mL | 0.4 µg/mL (≈ 0.748 µM) | 0.4 µg/mL (≈ 0.748 µM) | ≤ 0.1 µg/mL | 0.4 µg/mL (≈ 0.748 µM) | 0.4 µg/mL (≈ 0.748 µM) | 0.8 µg/mL (≈ 1.5 µM) |
| CSC(C)(C)[C@H](NC(=O)c1ccc(C#Cc2ccc(CN3CCOCC3)cc2)cc1)C(=O)NO [Compound 238] | ≤ 0.1 µg/mL | ≤ 0.1 µg/mL | ≤ 0.1 µg/mL | ≤ 0.1 µg/mL | 1.6 µg/mL (≈ 3.32 µM) | 1.6 µg/mL (≈ 3.32 µM) | 0.8 µg/mL (≈ 1.66 µM) | 1.6 µg/mL (≈ 3.32 µM) | 3.1 µg/mL (≈ 6.44 µM) | 3.1 µg/mL (≈ 6.44 µM) |
| CC[C@H](C)[C@H](NC(=O)c1ccc(C#Cc2ccc(CNC(C)COC)cc2)cc1)C(=O)NO (some centres unmarked) [Compound 185] | ≤ 0.1 µg/mL | ≤ 0.1 µg/mL | 0.8 µg/mL (≈ 1.77 µM) | 0.4 µg/mL (≈ 0.886 µM) | 3.1 µg/mL (≈ 6.86 µM) | 3.1 µg/mL (≈ 6.86 µM) | 0.8 µg/mL (≈ 1.77 µM) | 6.3 µg/mL (≈ 14 µM) | 6.3 µg/mL (≈ 14 µM) | 6.3 µg/mL (≈ 14 µM) |
| CC[C@H](C)[C@H](NC(=O)c1ccc(C#Cc2ccc(CN3CCS(=O)(=O)CC3)cc2)cc1)C(=O)NO [Compound 142] | ≤ 0.1 µg/mL | 0.2 µg/mL (≈ 0.402 µM) | 0.4 µg/mL (≈ 0.804 µM) | 0.4 µg/mL (≈ 0.804 µM) | 6.3 µg/mL (≈ 12.7 µM) | 12.5 µg/mL (≈ 25.1 µM) | 3.1 µg/mL (≈ 6.23 µM) | 12.5 µg/mL (≈ 25.1 µM) | 12.5 µg/mL (≈ 25.1 µM) | 25 µg/mL (≈ 50.2 µM) |
| CC[C@H](C)[C@H](NC(=O)c1ccc(C#Cc2ccc(CNCc3ccco3)cc2)cc1)C(=O)NO [Compound 181] | ≤ 0.1 µg/mL | 0.4 µg/mL (≈ 0.87 µM) | 0.8 µg/mL (≈ 1.74 µM) | 0.4 µg/mL (≈ 0.87 µM) | 0.4 µg/mL (≈ 0.87 µM) | 0.8 µg/mL (≈ 1.74 µM) | ≤ 0.1 µg/mL | 0.8 µg/mL (≈ 1.74 µM) | 0.8 µg/mL (≈ 1.74 µM) | 1.6 µg/mL (≈ 3.48 µM) |
| COc1ccc(CNCc2ccc(C#Cc3ccc(C(=O)N[C@H](C(=O)NO)C(C)(C)S(C)(=O)=O)cc3)cc2)cc1 [Compound 260] | ≤ 0.1 µg/mL | ≤ 0.1 µg/mL | ≤ 0.1 µg/mL | ≤ 0.1 µg/mL | 1.6 µg/mL (≈ 2.84 µM) | 0.4 µg/mL (≈ 0.71 µM) | ≤ 0.1 µg/mL | 0.8 µg/mL (≈ 1.42 µM) | 0.4 µg/mL (≈ 0.71 µM) | 1.6 µg/mL (≈ 2.84 µM) |

Second part, led by results:

| MIC PM 10775 [3] | MIC PM 6267 [5] | MIC PM 6391 [7] | MIC PM 12080 [9] | SMILES | MIC MH 6357 [1] | MIC MH 13065 [2] | MIC MH 10720 [4] | MIC MH 13093 [6] | MIC MH 6374 [8] | MIC MH 12587 [10] |
| --- | --- | --- | --- | --- | --- | --- | --- | --- | --- | --- |
| ≤ 0.1 µg/mL | 0.2 µg/mL (≈ 0.367 µM) | ≤ 0.1 µg/mL | ≤ 0.1 µg/mL | Cc1cnc(CNCc2ccc(C#Cc3ccc(C(=O)N[C@H](C(=O)NO)C(C)(C)S(C)(=O)=O)cc3)s2)o1 [Compound 323] | 0.2 µg/mL (≈ 0.367 µM) | 0.4 µg/mL (≈ 0.734 µM) | ≤ 0.1 µg/mL | 0.8 µg/mL (≈ 1.47 µM) | 0.2 µg/mL (≈ 0.367 µM) | 0.8 µg/mL (≈ 1.47 µM) |
| ≤ 0.1 µg/mL | 0.8 µg/mL (≈ 1.58 µM) | 0.4 µg/mL (≈ 0.788 µM) | ≤ 0.1 µg/mL | COc1ccc(CNCc2ccc(C#Cc3ccc(C(=O)N[C@H](C(=O)NO)C(C)(C)O)cc3)s2)cc1 [Compound 295] | ≤ 0.1 µg/mL | 0.2 µg/mL (≈ 0.394 µM) | ≤ 0.1 µg/mL | 0.4 µg/mL (≈ 0.788 µM) | 0.4 µg/mL (≈ 0.788 µM) | 0.8 µg/mL (≈ 1.58 µM) |
| 0.8 µg/mL (≈ 1.8 µM) | 6.3 µg/mL (≈ 14.1 µM) | ≤ 0.1 µg/mL | 0.4 µg/mL (≈ 0.898 µM) | CC(=O)C(NC(=O)c1ccc(C#Cc2ccc(CNCc3ccco3)cc2)cc1)C(=O)NO (centres unmarked) [Compound 410] | 0.8 µg/mL (≈ 1.8 µM) | 1.6 µg/mL (≈ 3.59 µM) | 1.6 µg/mL (≈ 3.59 µM) | 1.6 µg/mL (≈ 3.59 µM) | 1.6 µg/mL (≈ 3.59 µM) | 0.4 µg/mL (≈ 0.898 µM) |
| 0.4 µg/mL (≈ 0.843 µM) | 1.6 µg/mL (≈ 3.37 µM) | ≤ 0.1 µg/mL | ≤ 0.1 µg/mL | CON=C(C)[C@H](NC(=O)c1ccc(C#Cc2ccc(CNCc3ccco3)cc2)cc1)C(=O)NO [Compound 391] | 0.4 µg/mL (≈ 0.843 µM) | 0.4 µg/mL (≈ 0.843 µM) | 0.4 µg/mL (≈ 0.843 µM) | 0.4 µg/mL (≈ 0.843 µM) | 0.4 µg/mL (≈ 0.843 µM) | ≤ 0.1 µg/mL |
| 3.1 µg/mL (≈ 7.61 µM) | 25 µg/mL (≈ 61.4 µM) | 0.2 µg/mL (≈ 0.491 µM) | 3.1 µg/mL (≈ 7.61 µM) | CCCNCc1ccc(C#Cc2ccc(C(=O)N[C@@H](C(C)=O)C(=O)NO)cc2)cc1 [Compound 406] | 12.5 µg/mL (≈ 30.7 µM) | 25 µg/mL (≈ 61.4 µM) | 6.3 µg/mL (≈ 15.5 µM) | 12.5 µg/mL (≈ 30.7 µM) | 25 µg/mL (≈ 61.4 µM) | 1.6 µg/mL (≈ 3.93 µM) |
